{"source": "paper PMC7899671", "about": "(eLife, 2021)", "key": {"[1]": {"molecular_target": "T1, α1L9'T/K278Aβ2γ2L receptors (L9'T/K278A) (Rattus norvegicus, UniProt P18508+P62813+P63138, INS375LLRMFSFK/K305A/L290T)", "T1 construct": "expressed in transfected cells; host or cells: Xenopus laevis oocytes injected with mRNA (α:β:γ 1:1:10)", "T1 sequence (P62813 28-455 L290T/K305A)": "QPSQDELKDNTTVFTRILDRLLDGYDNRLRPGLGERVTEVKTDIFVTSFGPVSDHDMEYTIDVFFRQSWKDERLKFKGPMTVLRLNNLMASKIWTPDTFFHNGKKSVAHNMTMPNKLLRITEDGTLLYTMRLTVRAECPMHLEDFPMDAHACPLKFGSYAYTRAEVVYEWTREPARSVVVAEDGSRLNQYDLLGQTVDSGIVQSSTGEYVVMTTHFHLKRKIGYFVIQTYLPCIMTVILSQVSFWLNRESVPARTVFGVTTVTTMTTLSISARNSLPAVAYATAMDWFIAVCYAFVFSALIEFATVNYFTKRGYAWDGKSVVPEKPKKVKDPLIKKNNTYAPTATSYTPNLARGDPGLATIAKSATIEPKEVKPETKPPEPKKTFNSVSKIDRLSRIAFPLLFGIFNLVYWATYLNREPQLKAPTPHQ", "T1 sequence (P63138 25-474 limits assumed, stated change not applied)": "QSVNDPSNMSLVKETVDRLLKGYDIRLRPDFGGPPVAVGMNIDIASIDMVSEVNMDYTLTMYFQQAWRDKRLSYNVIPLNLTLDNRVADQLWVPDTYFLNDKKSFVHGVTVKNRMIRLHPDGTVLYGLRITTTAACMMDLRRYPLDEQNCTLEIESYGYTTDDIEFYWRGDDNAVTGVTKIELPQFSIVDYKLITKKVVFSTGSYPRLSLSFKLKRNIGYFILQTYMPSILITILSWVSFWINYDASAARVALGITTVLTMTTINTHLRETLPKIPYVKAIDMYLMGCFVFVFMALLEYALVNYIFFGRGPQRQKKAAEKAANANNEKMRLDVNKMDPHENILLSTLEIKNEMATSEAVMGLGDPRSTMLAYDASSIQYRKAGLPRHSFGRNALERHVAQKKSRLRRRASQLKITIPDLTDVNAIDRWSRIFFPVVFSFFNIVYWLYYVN", "T1 sequence (P18508 with tags, fused parts or gaps INS375LLRMFSFK)": "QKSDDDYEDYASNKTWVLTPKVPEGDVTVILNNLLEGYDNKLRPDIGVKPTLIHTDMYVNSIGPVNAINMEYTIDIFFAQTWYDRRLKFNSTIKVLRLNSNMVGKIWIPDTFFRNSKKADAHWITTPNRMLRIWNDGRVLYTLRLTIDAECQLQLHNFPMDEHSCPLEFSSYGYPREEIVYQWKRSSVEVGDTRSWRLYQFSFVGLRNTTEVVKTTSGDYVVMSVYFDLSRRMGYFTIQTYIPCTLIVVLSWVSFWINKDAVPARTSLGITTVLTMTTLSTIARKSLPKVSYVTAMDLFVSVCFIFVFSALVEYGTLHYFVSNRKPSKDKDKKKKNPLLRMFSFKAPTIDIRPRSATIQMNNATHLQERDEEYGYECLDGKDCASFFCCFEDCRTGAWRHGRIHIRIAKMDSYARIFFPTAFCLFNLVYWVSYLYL", "assay_type": "cell-based", "text": "(§1) We use the gain of function mutation α1L9'T that confers spontaneous channel gating in the absence of agonist that can be further modulated by BZDs ([Scheller and Forman, 2002]; [Chang and Weiss, 1999]). The primary purpose for this mutation is to enable macroscopic current responses to report on pore gating by a BZD in the absence of agonist. […] We restricted the scan primarily to the flexible loop between helical regions associated with M2 and M3 from α1L276-T283 (Figure 1; Figure 1—figure supplement 1). Two of these positions, α1A280 and α1A282, are natively alanine and were not mutated. Briefly, Xenopus laevis oocytes were co-injected with mRNA for α, β, and γ subunits in a 1:1:10 ratio, and current responses to microfluidic application of ligands were recorded in two-electrode voltage clamp. […] Current block by the pore blocker PTX was used to assess the amount of spontaneous activity and to correct for drift or rundown over the course of the experiment (see Figure 2—figure supplement 1).\n(§2) BZD positive modulators alone evoke channel opening with extremely low probability ([Campo-Soria et al., 2006]), thus necessitating coapplication with an agonist to obtain robust currents from wild-type receptors ([Germann et al., 2019]). However, dissecting the effects of BZDs on either agonist binding or channel gating is severely challenged in the presence of an agonist because the two processes are intimately coupled ([Colquhoun, 1998]).\n(§3) DNA for wild-type GABAAR rat α1, β2, and γ2L subunits were a gift from Dr. Cynthia Czajkowski. Single alanine substitutions were introduced throughout the α1M2–M3 linker from L276-T283 in addition to the gain of function α1L9'T pore mutation (rat α1L263T) (QuikChange II, […]). Mutations V279D and V279W were introduced similarly. Each construct was verified by forward and reverse sequencing of the entire gene. mRNA for each construct was generated (mMessage mMachine T7, Ambion) for expression in X. laevis oocytes (EcoCyte Bioscience, Austin, TX). Oocytes were injected with 27–54 ng of total mRNA for α, β, and γ subunits in a 1:1:10 ratio ([Boileau et al., 2002]) (Nanoject, Drummond Scientific). Oocytes were incubated in ND96 (in mM: 96 NaCl, 2 KCl, 1 MgCl2, 1.8 CaCl2, 5 HEPES, pH 7.2) with […] gentamicin at 18°C.\n(§4) Currents from expressed channels 1–3 days post-injection were recorded in two-electrode voltage clamp (Dagan TEV-200, HEKA ITC and Patchmaster software). […] PTX was diluted from a 1 M stock solution in DMSO. […] Recorded currents were analyzed with custom scripts in MATLAB (Mathworks). Recordings of concentration–response relationships were bookended by pulses of PTX to correct for any drift or rundown during the experiment. Briefly, currents were baseline subtracted to correct for drift and then scaled by a linear fit to the peak of each PTX response to correct for rundown (Figure 2—figure supplement 1)."}, "[2]": {"molecular_target": "T2, α1L9'T/L276Aβ2γ2L GABAA receptor (L9'T/L276A) (Rattus norvegicus, UniProt P18508+P62813+P63138, INS375LLRMFSFK/L290T/L303A)", "T2 construct": "expressed in transfected cells; host or cells: Xenopus laevis oocytes injected with mRNA (α:β:γ 1:1:10)", "assay_type": "cell-based", "text": "as §1, §2, §3, §4"}, "[3]": {"molecular_target": "T3, α1L9'T/P277Aβ2γ2L GABAA receptor (L9'T/P277A) (Rattus norvegicus, UniProt P18508+P62813+P63138, INS375LLRMFSFK/L290T/P304A)", "T3 construct": "expressed in transfected cells; host or cells: Xenopus laevis oocytes injected with mRNA (α:β:γ 1:1:10)", "assay_type": "cell-based", "text": "as §1, §2, §3, §4"}, "[4]": {"molecular_target": "T4, α1L9'T/T283Aβ2γ2L GABAA receptor (L9'T/T283A) (Rattus norvegicus, UniProt P18508+P62813+P63138, INS375LLRMFSFK/L290T/T310A)", "T4 construct": "expressed in transfected cells; host or cells: Xenopus laevis oocytes injected with mRNA (α:β:γ 1:1:10)", "assay_type": "cell-based", "text": "as §1, §2, §3, §4"}, "[5]": {"molecular_target": "T5, α1L9'T/V279Aβ2γ2L receptors (L9'T/V279A) (Rattus norvegicus, UniProt P18508+P62813+P63138, INS375LLRMFSFK/L290T/V306A)", "T5 construct": "expressed in transfected cells; host or cells: Xenopus laevis oocytes injected with mRNA (α:β:γ 1:1:10)", "assay_type": "cell-based", "text": "as §1, §2, §3, §4"}, "[6]": {"molecular_target": "T6, α1L9'T/Y281Aβ2γ2L GABAA receptor (L9'T/Y281A) (Rattus norvegicus, UniProt P18508+P62813+P63138, INS375LLRMFSFK/L290T/Y308A)", "T6 construct": "expressed in transfected cells; host or cells: Xenopus laevis oocytes injected with mRNA (α:β:γ 1:1:10)", "T6 sequence (P62813 28-455 L290T/Y308A)": "as the sequence (P62813 28-455 L290T/K305A) above, with A278K, Y281A counted along it", "T6 sequence (P63138 25-474 limits assumed, stated change not applied)": "as the sequence (P63138 25-474 limits assumed, stated change not applied) above", "T6 sequence (P18508 with tags, fused parts or gaps INS375LLRMFSFK)": "as the sequence (P18508 with tags, fused parts or gaps INS375LLRMFSFK) above", "assay_type": "cell-based", "text": "as §1, §2, §3, §4"}, "[7]": {"molecular_target": "T7, α1L9'Tβ2γ2L GABAA receptor (L9'T) (Rattus norvegicus, UniProt P18508+P62813+P63138, INS375LLRMFSFK/L290T)", "T7 construct": "expressed in transfected cells; host or cells: Xenopus laevis oocytes injected with mRNA (α:β:γ 1:1:10)", "assay_type": "cell-based", "text": "as §1, §2, §3, §4"}, "[8]": {"molecular_target": "T8, α1L9'T/V279Dβ2γ2L GABAA receptor (L9'T/V279D) (Rattus norvegicus, UniProt P18508+P62813+P63138, INS375LLRMFSFK/L290T/V306D)", "T8 construct": "expressed in transfected cells; host or cells: Xenopus laevis oocytes injected with mRNA (α:β:γ 1:1:10)", "T8 sequence (P62813 28-455 L290T/V306D)": "as the sequence (P62813 28-455 L290T/K305A) above, with A278K, V279D counted along it", "T8 sequence (P63138 25-474 limits assumed, stated change not applied)": "as the sequence (P63138 25-474 limits assumed, stated change not applied) above", "T8 sequence (P18508 with tags, fused parts or gaps INS375LLRMFSFK)": "as the sequence (P18508 with tags, fused parts or gaps INS375LLRMFSFK) above", "assay_type": "cell-based", "text": "(§5) The M2–M3 linker has both high sequence and structural similarity in pLGICs. The valine at position 279 in the GABAAR α1 subunit is located near the center of the linker and is nearly always an aliphatic residue in different GABAAR subunits as well as in subunits of other pLGICs, with the exception of AChR, where it is a threonine. Even where sequences differ, structural models of the M2–M3 linker for multiple pLGICs are highly similar.\nas §3, §4\n(§6) where I is the peak current response, X is ligand concentration, EC50 is the concentration eliciting a half-maximal response, and n is the Hill slope."}, "[9]": {"molecular_target": "T9, α1L9'T/V279Wβ2γ2L GABAA receptor (L9'T/V279W) (Rattus norvegicus, UniProt P18508+P62813+P63138, INS375LLRMFSFK/L290T/V306W)", "T9 construct": "expressed in transfected cells; host or cells: Xenopus laevis oocytes injected with mRNA (α:β:γ 1:1:10)", "assay_type": "cell-based", "text": "as §5, §3, §4, §6"}, "[10]": {"molecular_target": "T10, α1V279Aβ2γ2L (V279A) receptors (Rattus norvegicus, UniProt P18508+P62813+P63138, INS375LLRMFSFK/V306A)", "T10 construct": "expressed in transfected cells; host or cells: Xenopus laevis oocytes injected with mRNA (α:β:γ 1:1:10)", "experiment": "Two-electrode voltage clamp of receptors expressed in Xenopus laevis oocytes (V279A)", "assay_type": "cell-based", "text": "as §3, §4, §6"}, "[11]": {"molecular_target": "α1L9'Tβ2γ2L, α1L9'T/V279Aβ2γ2L, and α1β2γ2L receptors", "experiment": "MWC model of channel gating, global fit to estimated open probability", "settings": "MWC model parameter, global optimisation"}, "[12]": {"molecular_target": "T11, α1β2γ2L (wild-type) GABAA receptors (Rattus norvegicus, UniProt P18508+P62813+P63138, INS375LLRMFSFK)", "T11 construct": "expressed in transfected cells; host or cells: Xenopus laevis oocytes injected with mRNA (α:β:γ 1:1:10)", "experiment": "Two-electrode voltage clamp of receptors expressed in Xenopus laevis oocytes (wild-type)", "assay_type": "cell-based", "settings": "WT; 10 μM GABA + 1 μM FG-7142", "text": "as §3\nas §4, with “Briefly, currents were baseline subtracted to correct for drift and then scaled by a linear fit to the peak of each PTX response to correct for rundown (Figure 2—figure supplement 1).” left out"}}, "data": [{"compound": "CN1C(=O)CN=C(c2ccccc2)c2cc(Cl)ccc21", "note": "[DZ, diazepam]", "values": [{"measurement": "DZ hill slope", "setting": "[1]", "value": 0.97}, {"measurement": "ΔΔGDZ (DZ's energetic contribution to pore gating, ΔG1 − ΔG0)", "setting": "[1]", "value": "−0.44 ± 0.08 (4) kcal/mol"}, {"measurement": "DZ hill slope", "setting": "[2]", "value": 0.61}, {"measurement": "ΔΔGDZ (DZ's energetic contribution to pore gating, ΔG1 − ΔG0)", "setting": "[2]", "value": "−0.45 ± 0.04 (5) kcal/mol"}, {"measurement": "DZ hill slope", "setting": "[3]", "value": 1.24}, {"measurement": "ΔΔGDZ (DZ's energetic contribution to pore gating, ΔG1 − ΔG0)", "setting": "[3]", "value": "−0.46 ± 0.20 (5) kcal/mol"}, {"measurement": "DZ hill slope", "setting": "[4]", "value": 1.42}, {"measurement": "ΔΔGDZ (DZ's energetic contribution to pore gating, ΔG1 − ΔG0)", "setting": "[4]", "value": "−0.38 ± 0.04 (6) kcal/mol"}, {"measurement": "DZ hill slope", "setting": "[5]", "value": 0.98}, {"measurement": "dV279A (factor by which DZ binding influences channel opening)", "setting": "[5]", "value": 0.20}, {"measurement": "ΔΔGDZ (DZ's energetic contribution to pore gating, ΔG1 − ΔG0)", "setting": "[5]", "value": "−1.11 ± 0.30 (5) kcal/mol"}, {"measurement": "DZ hill slope", "setting": "[6]", "value": 1.14}, {"measurement": "ΔΔGDZ (DZ's energetic contribution to pore gating, ΔG1 − ΔG0)", "setting": "[6]", "value": "−0.42 ± 0.07 (4) kcal/mol"}, {"measurement": "DZ hill slope", "setting": "[7]", "value": 1.10}, {"measurement": "ΔΔGDZ (DZ's energetic contribution to pore gating, ΔG1 − ΔG0)", "setting": "[7]", "value": "−0.31 ± 0.04 (5) kcal/mol"}, {"measurement": "DZ hill slope", "setting": "[8]", "value": 0.58}, {"measurement": "ΔΔGDZ (DZ's energetic contribution to pore gating, ΔG1 − ΔG0)", "setting": "[8]", "value": "−0.52 ± 0.02 (3) kcal/mol"}, {"measurement": "DZ hill slope", "setting": "[9]", "value": 0.90}, {"measurement": "ΔΔGDZ (DZ's energetic contribution to pore gating, ΔG1 − ΔG0)", "setting": "[9]", "value": "−0.53 ± 0.10 (3) kcal/mol"}, {"measurement": "DZ potentiation of GABA-evoked peak current responses", "setting": "[10]; V279A vs wild-type, 1 μM DZ, EC20-25 (30 μM) or EC100 GABA", "value": "to a greater extent in V279A than in wild-type receptors"}, {"measurement": "DZ potentiation of currents evoked with a saturating concentration of GABA", "setting": "[10]; V279A, 1 μM DZ, EC100 GABA 3–30 mM", "value": "potentiates V279A currents evoked with a saturating concentration of GABA"}, {"measurement": "Kd", "setting": "[11]; read-out: KD (dissociation constant for DZ)", "value": 180, "unit": "nM"}]}, {"compound": "CNC(=O)c1cc2c(cn1)[nH]c1ccccc12", "note": "[FG-7142]", "values": [{"measurement": "Effect of FG-7142 on responses to ~EC20-25 GABA", "setting": "[12]", "value": "reduced"}, {"measurement": "Effect of FG-7142 on responses to ~EC20-25 GABA", "setting": "[10]; V279A, 30 μM GABA + 1 μM FG-7142, compared with WT", "value": "to a slightly lesser extent in V279A"}]}, {"compound": "NCCCC(=O)O", "note": "[GABA]", "values": [{"measurement": "c (factor by which GABA binding influences channel opening)", "setting": "[11]", "value": 0.0031}]}, {"compound": "picrotoxin [PTX]", "values": [{"measurement": "IPTX /IGABA-max (ratio of PTX-sensitive to maximal GABA-evoked current amplitude)", "setting": "[1]; L9'T/K278A, 1 mM PTX, saturating GABA, mean ± SD", "value": "0.20 ± 0.06 (5)"}, {"measurement": "IPTX /IGABA-max (ratio of PTX-sensitive to maximal GABA-evoked current amplitude)", "setting": "[2]; L9'T/L276A, 1 mM PTX, saturating GABA, mean ± SD", "value": "0.22 ± 0.09 (4)"}, {"measurement": "IPTX /IGABA-max (ratio of PTX-sensitive to maximal GABA-evoked current amplitude)", "setting": "[3]; L9'T/P277A, 1 mM PTX, saturating GABA, mean ± SD", "value": "0.45 ± 0.03 (3)"}, {"measurement": "IPTX /IGABA-max (ratio of PTX-sensitive to maximal GABA-evoked current amplitude)", "setting": "[4]; L9'T/T283A, 1 mM PTX, saturating GABA, mean ± SD", "value": "0.11 ± 0.03 (5)"}, {"measurement": "IPTX /IGABA-max (ratio of PTX-sensitive to maximal GABA-evoked current amplitude)", "setting": "[5]; L9'T/V279A, 1 mM PTX, saturating GABA, mean ± SD", "value": "0.17 ± 0.04 (4)"}, {"measurement": "IPTX /IGABA-max (ratio of PTX-sensitive to maximal GABA-evoked current amplitude)", "setting": "[6]; L9'T/Y281A, 1 mM PTX, saturating GABA, mean ± SD", "value": "0.25 ± 0.07 (5)"}, {"measurement": "IPTX /IGABA-max (ratio of PTX-sensitive to maximal GABA-evoked current amplitude)", "setting": "[7]; L9'T, 1 mM PTX, saturating GABA, mean ± SD (# oocytes)", "value": "0.36 ± 0.04 (5)"}, {"measurement": "IPTX /IGABA-max (ratio of PTX-sensitive to maximal GABA-evoked current amplitude)", "setting": "[8]; L9'T/V279D, 1 mM PTX, saturating GABA, mean ± SD", "value": "0.02 ± 0.005 (3)"}, {"measurement": "IPTX /IGABA-max (ratio of PTX-sensitive to maximal GABA-evoked current amplitude)", "setting": "[9]; L9'T/V279W, 1 mM PTX, saturating GABA, mean ± SD", "value": "0.16 ± 0.05 (2)"}]}]}
